Where “and” joins values, the source holds several entries; their conditions need not be identical. Identical values can stand only once.
Columns and labels:
AmpC β-lactamase = molecular target: T1, AmpC β-lactamase (Pseudomonas aeruginosa, UniProt P24735); assay: Enzyme inhibition assay (spectrophotometric, cephalothin reporter substrate); format: biochemical, P. aeruginosa; conditions: mean of two replicates, five inhibitor concentrations, Dixon plot, 100 μM cephalothin, pH 7.5, 25 °C
T1 construct: made in house; host or cells: E. coli BL21(DE3), plasmid pET-9aAmpC
T1 sequence (P24735 27-397): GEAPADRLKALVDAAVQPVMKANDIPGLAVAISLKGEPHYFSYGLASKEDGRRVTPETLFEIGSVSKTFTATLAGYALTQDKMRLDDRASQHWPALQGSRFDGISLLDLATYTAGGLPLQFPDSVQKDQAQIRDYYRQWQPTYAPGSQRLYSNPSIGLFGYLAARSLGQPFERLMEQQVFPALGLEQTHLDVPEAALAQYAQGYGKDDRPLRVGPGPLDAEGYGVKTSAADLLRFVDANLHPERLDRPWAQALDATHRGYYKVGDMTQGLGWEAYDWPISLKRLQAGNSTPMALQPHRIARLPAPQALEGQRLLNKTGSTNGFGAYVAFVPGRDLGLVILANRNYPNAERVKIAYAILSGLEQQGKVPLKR
Experimental: (§1) To obtain a well-characterized inhibition profile for each selected boronic acids against each BLs in the panel, the compounds were tested for inhibitory activity. The protein panel included clinically- and epidemiologically-relevant β-lactamases, representatives of each structural class (A to D), as mentioned above. Each BL was overexpressed in E. coli, purified by chromatography and characterized as already reported. (SI, Table S1)[40]–[45].
(§2) Reactions were initiated with addition of BL enzyme (the concentration values for each BL enzyme into the SI, Table S1 have been reported).
(§3) From the resulting inhibition percentages at each different inhibitor concentration and, assuming a competitive inhibition for the boronic compounds panel, it was possible to calculate the IC50 values from the Dixon plot 1/V vs [I], using the equation IC50 = […][61], where v0 is the rate of hydrolysis of the reporter substrate (v0 being the rate measured in the absence of inhibitor), q the y axis intercept and m the slope of the resulting linear regression.

CTX-M-15 = molecular target: T2, CTX-M-15 (Escherichia coli, UniProt Q9EXV5); assay: as above; format: biochemical; conditions: IC50 CTX-M-15, mean of two replicates, five inhibitor concentrations, Dixon plot; pH 7.5, 25 °C
T2 construct: made in house; host or cells: E. coli BL21(DE3), pET-9a derivative (pET-CTX-M-15)
T2 sequence (Q9EXV5 entry or part of it): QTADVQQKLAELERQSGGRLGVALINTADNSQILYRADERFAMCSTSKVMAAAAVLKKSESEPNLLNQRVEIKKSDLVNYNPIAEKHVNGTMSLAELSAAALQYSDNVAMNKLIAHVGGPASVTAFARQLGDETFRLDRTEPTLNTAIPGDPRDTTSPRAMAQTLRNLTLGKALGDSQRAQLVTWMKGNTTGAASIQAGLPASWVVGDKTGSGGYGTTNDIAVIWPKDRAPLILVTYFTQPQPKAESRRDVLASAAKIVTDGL
Experimental: as §1, §2, §3

OXA-24 = molecular target: T3, OXA-24 (Acinetobacter baumannii, UniProt Q8RLA6); assay: as above; format: biochemical
T3 construct: GST (N, cleaved yes); made in house; host or cells: E. coli DH5α, pGEX-2T-OXA-24
T3 sequence (Q8RLA6 22-275 limits assumed): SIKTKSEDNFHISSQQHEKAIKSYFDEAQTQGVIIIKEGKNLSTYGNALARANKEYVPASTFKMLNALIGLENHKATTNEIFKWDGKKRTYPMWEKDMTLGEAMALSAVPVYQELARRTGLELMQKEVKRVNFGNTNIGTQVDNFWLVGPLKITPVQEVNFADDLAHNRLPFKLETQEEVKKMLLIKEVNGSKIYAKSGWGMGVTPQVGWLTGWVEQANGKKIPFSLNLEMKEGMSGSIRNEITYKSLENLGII
Experimental: as §1, §2, §3

KPC-2 = molecular target: T4, KPC-2 (Klebsiella pneumoniae, UniProt Q9F663); assay: as above; format: biochemical; conditions: mean of two replicates, five inhibitor concentrations, Dixon plot; pH 7.5, 25 °C
T4 construct: made in house; host or cells: E. coli BL21(DE3), pET9-KPC2
T4 sequence (Q9F663 25-293 limits assumed): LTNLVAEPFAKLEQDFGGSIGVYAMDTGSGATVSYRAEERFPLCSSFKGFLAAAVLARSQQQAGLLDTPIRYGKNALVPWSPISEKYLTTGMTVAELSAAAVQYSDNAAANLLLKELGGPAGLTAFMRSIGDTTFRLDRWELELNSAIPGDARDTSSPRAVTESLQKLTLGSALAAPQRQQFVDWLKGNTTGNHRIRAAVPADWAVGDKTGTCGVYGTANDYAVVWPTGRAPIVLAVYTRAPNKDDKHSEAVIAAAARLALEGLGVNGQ
Experimental: as §1, §2

[1] = system: E. aerogenes clinical isolate, overproduction chromosomal AmpC; assay: Susceptibility testing (MIC), synergy with ceftazidime; format: cell-based; conditions: antibiotic:inhibitor 1:1 (w/w)
Experimental: (§4) The minimum inhibitory concentrations (MICs), for CAZ and CTX alone and in combination with boronic acids against resistant strains were determined (Table 2a,b).
(§5) Susceptibility testing was performed in Mueller Hinton broth and interpreted following the guidelines of the National Committee for Clinical Laboratory Standards[70]. To test the inhibitory activity, the compounds were dissolved in DMSO, 50% in water, and further dilutions were performed using growth medium. In all cases tests were performed at a final DMSO concentration below 5%, avoiding unwanted DMSO inhibition effect on strains growth (blank test control with DMSO were performed). The MICs of cefotaxime and ceftazidime alone and in association were determined against several relevant Gram-negative clinical isolates, selected from the pathogen collection of the Spanish Network for Research in Infectious Pathology (REIPI; Spain). The selection was based on strains capability of producing β-lactamases of interest for the present study. The antibiotic:inhibitor ratio was 1:1 (w/w).

[2] = system: E. cloacae clinical isolate, overproduction chromosomal AmpC; assay: as above; format: cell-based; conditions: for MIC of ceftazidime (CAZ) in combination with compound: overproduction chromosomal AmpC, antibiotic:inhibitor 1:1 (w/w)
Experimental: as §4, §5

[3] = system: E. coli clinical isolate, overproduction chromosomal AmpC; assay: as above; format: cell-based; conditions: antibiotic:inhibitor 1:1 (w/w)
Experimental: as §4, §5

[4] = system: E. coli clinical isolate, plasmidic AmpC - DHA1; assay: as above; format: cell-based; conditions: for MIC of ceftazidime (CAZ) in combination with compound: E. coli, plasmidic AmpC - DHA1, antibiotic:inhibitor 1:1 (w/w)
Experimental: as §4, §5

[5] = system: P. aeruginosa 12, overproduction chromosomal AmpC; assay: as above; format: cell-based; conditions: antibiotic:inhibitor 1:1 (w/w)
Experimental: as §4, §5

[6] = system: P. aeruginosa 120, overproduction chromosomal AmpC; assay: as above; format: cell-based; conditions: antibiotic:inhibitor 1:1 (w/w)
Experimental: as §4, §5

[7] = system: P. aeruginosa 148, overproduction chromosomal AmpC; assay: as above; format: cell-based; conditions: antibiotic:inhibitor 1:1 (w/w)
Experimental: as §4, §5

[8] = system: P. aeruginosa 199, overproduction chromosomal AmpC; assay: as above; format: cell-based; conditions: antibiotic:inhibitor 1:1 (w/w)
Experimental: as §4, §5

[9] = system: P. aeruginosa 49, overproduction chromosomal AmpC; assay: as above; format: cell-based; conditions: antibiotic:inhibitor 1:1 (w/w)
Experimental: as §4, §5

[10] = system: CTX-M-15 E. coli clinical isolate; assay: Susceptibility testing (MIC), synergy with cefotaxime; format: cell-based; conditions: CTX-M-15 E. coli; antibiotic:inhibitor 1:1 (w/w)
Experimental: as §4, §5

[11] = system: KPC-2 K. pneumoniae clinical isolate; assay: as above; format: cell-based; conditions: for MIC of cefotaxime (CTX) in combination with compound: KPC-2 K. pneumoniae, antibiotic:inhibitor 1:1 (w/w)
Experimental: as §4, §5

[12] = system: NDM-1 E. coli clinical isolate; assay: as above; format: cell-based; conditions: antibiotic:inhibitor 1:1 (w/w)
Experimental: as §4, §5

[13] = system: OXA-24 A. baumanii clinical isolate; assay: as above; format: cell-based; conditions: antibiotic:inhibitor 1:1 (w/w)
Experimental: as §4, §5

[14] = system: VIM-2 P. aeruginosa clinical isolate; assay: as above; format: cell-based; conditions: antibiotic:inhibitor 1:1 (w/w)
Experimental: as §4, §5

VIM-2 = VIM-2 (Escherichia coli, UniProt Q5U7L7); assay: Enzyme inhibition assay (spectrophotometric, cephalothin reporter substrate); format: biochemical; parameters: made in house; host or cells: E. coli BL21(DE3), pET9-VIM-2; conditions: mean of two replicates, five inhibitor concentrations, Dixon plot; pH 7.5, 25 °C
Experimental: as §1, §2

NDM-1 = NDM-1 (Klebsiella pneumoniae, UniProt C7C422); assay: as above; format: biochemical; parameters: His-tag; made in house; host or cells: E. coli BL21(DE3), pET-15-NDM-1; conditions: mean of two replicates, five inhibitor concentrations, Dixon plot; pH 7.5, 25 °C
NDM-1, sequence (C7C422 29-270 limits assumed): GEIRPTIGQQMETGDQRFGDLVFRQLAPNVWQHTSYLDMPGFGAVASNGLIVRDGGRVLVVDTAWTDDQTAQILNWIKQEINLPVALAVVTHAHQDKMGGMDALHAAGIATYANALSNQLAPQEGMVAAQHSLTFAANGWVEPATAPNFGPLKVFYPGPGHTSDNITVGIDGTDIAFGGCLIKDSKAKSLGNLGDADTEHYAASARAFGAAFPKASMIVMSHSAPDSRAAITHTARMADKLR
Experimental: as §1, §2

[15] = system: CC(=O)OCC1=C(C(=O)O)N2C(=O)[C@@H](NC(=O)Cc3cccs3)[C@H]2SC1; assay: purified protein, by the assay type; conditions: 37.0 °C
[16] = other: β-lactam substrate of AmpC, enzyme 0.019 µM
[17] = other: β-lactam substrate of CTX-M-15, enzyme 0.067 µM
[18] = other: β-lactam substrate of OXA-24, enzyme 0.035 µM

| Compound | IC50 (AmpC β-lactamase) | IC50 (CTX-M-15) | IC50 (OXA-24) [µM] | IC50 (KPC-2) | MIC of ceftazidime (CAZ) in combination with compound [2] [µg/mL] | MIC of ceftazidime (CAZ) in combination with compound [3] [µg/mL] | MIC of ceftazidime (CAZ) in combination with compound [4] [µg/mL] | MIC of ceftazidime (CAZ) in combination with compound [5] [µg/mL] | MIC of ceftazidime (CAZ) in combination with compound [6] [µg/mL] | MIC of ceftazidime (CAZ) in combination with compound [7] [µg/mL] | MIC of ceftazidime (CAZ) in combination with compound [8] [µg/mL] | MIC of ceftazidime (CAZ) in combination with compound [9] [µg/mL] | MIC of cefotaxime (CTX) in combination with compound [10] [µg/mL] | MIC of cefotaxime (CTX) in combination with compound [11] [µg/mL] | MIC of cefotaxime (CTX) in combination with compound [12] [µg/mL] | MIC of cefotaxime (CTX) in combination with compound [13] [µg/mL] | MIC of cefotaxime (CTX) in combination with compound [14] [µg/mL] | IC50 (VIM-2) [µM] | IC50 (NDM-1) [µM] | further results |
| --- | --- | --- | --- | --- | --- | --- | --- | --- | --- | --- | --- | --- | --- | --- | --- | --- | --- | --- | --- | --- |
| Cc1ccc2sc(B3OC(C)(C)C(C)(C)O3)cc2c1 [Compound 1] | 0.4 ± 0.08 µM | 6.4 ± 1.52 µM | 113 ± 14.6 | 5.9 ± 1.64 µM | 64 | 16 | 64 | 4 | 4 | 8 | 16 | 4 | 64 | 4 | 1024 | 64 | 1024 | 72 ± 14.7 | 68.4 ± 14 | MIC of ceftazidime (CAZ) in combination with compound [1]: 4 µg/mL; MIC decrease of CAZ (fold) / synergy ([2]; CAZ combination): 4 fold; MIC reduction of CAZ (fold) ([4]; DHA-1-producing E. coli strain, CAZ combination): 8 fold; MIC reduction of CTX (fold) ([11]; K. pneumoniae producing KPC-2, CTX combination): 32 fold |
| CC1(C)OB(c2cc3cc(CBr)ccc3s2)OC1(C)C [Compound 2] | 0.2 ± 0.04 µM | 8.3 ± 1.09 µM | 93 ± 18.4 | 4.7 ± 2.04 µM |  | 16 | 32 | 4 | 2 | 8 | 16 | 4 | 64 | 4 | 1024 | 64 |  | 83.5 ± 3.35 | 64.6 ± 7.88 | MIC of ceftazidime (CAZ) in combination with compound [1]: 4 µg/mL |
| NCc1ccc2sc(B(O)O)cc2c1 [Compound 3] | 0.16 ± 0.06 µM | 5.2 ± 1.42 µM | 132 ± 20.9 | 7.3 ± 1.82 µM | 64 | 16 | 512 | 64 | 4 | 4 | 64 | 64 | 64 | 4 | 32 | 64 | 8 | 26.9 ± 7.07 | 60.7 ± 11.8 |  |
| CC(C)(C)OC(=O)c1cccc2cc(B3OC(C)(C)C(C)(C)O3)sc12 [Compound 4] | 3.88 µM and 3.9 µM | 4.49 µM and 4.5 µM | 38 ± 7.64 | 8.22 µM and 5.4 µM |  | 512 | 512 | 32 | 4 | 32 | 64 | 64 | 64 | 4 | 1024 | 64 | 1024 | 20.2 ± 0.07 | 35.7 ± 7.46 |  |
| CC(C)(C)OC(=O)Nc1cccc2cc(B(O)O)sc12 [Compound 6] | 4.4 ± 0.83 µM | 9.8 ± 3.34 µM | 88 ± 14 | 2.25 µM and 2.3 µM | 64 | 64 | 512 | 64 | 4 | 64 | 64 | 64 | 16 | 4 | 64 | 16 |  | 103 ± 14.2 | 117 ± 9.72 |  |
| AmpC (Pseudomonas aeruginosa PAO1) |  |  |  |  |  |  |  |  |  |  |  |  |  |  |  |  |  |  |  | Km [15, 16]: 33 ± 2 µM; kcat [15, 16]: 159 ± 32 s⁻¹; kcat/Km [15, 16]: 4.82e+06 M⁻¹ s⁻¹ |
| CTX-M-15 (Escherichia coli) |  |  |  |  |  |  |  |  |  |  |  |  |  |  |  |  |  |  |  | Km [15, 17]: 41 ± 3 µM; kcat [15, 17]: 35 ± 7 s⁻¹; kcat/Km [15, 17]: 850000 M⁻¹ s⁻¹ |
| OXA-24 (Acinetobacter baumannii) |  |  |  |  |  |  |  |  |  |  |  |  |  |  |  |  |  |  |  | Km [15, 18]: 20 ± 2 µM; kcat [15, 18]: 1000 ± 150 s⁻¹; kcat/Km [15, 18]: 5e+07 M⁻¹ s⁻¹ |
